Laboratory results: patent publication US20250380696A1, “METHOD FOR CONTROLLING UNDESIRED PLANTS AND PROMOTING GROWTH OF USEFUL PLANTS” (ISHIHARA SANGYO KAISHA, LTD., priority 2022, published 2025)

Assays:
Format in all cases: in vivo
[1] = system: Italian ryegrass (Lolium multiflorum); assay: (2) Herbicidal effect test, pot, spray at 2.5 to 3.0 leaf stage; conditions: 16th day after spraying
Text: (§1) [formula] • X: growth inhibition rate when treated with α (g/ha) of compound A, • Y: growth inhibition rate when treated with β (g/ha) of compound B, • E: growth inhibition rate expected when treated with α (g/ha) of compound A and β (g/ha) of compound B (expected value).
(§2) Upland soil was put in a 1/1,000,000 hectare pot, and seeds of Italian ryegrass (Lolium multiflorum) were sown. When the Italian ryegrass reached 2.5 to 3.0 leaf stage, a water-based suspension containing tiafenacil as the active ingredient, prepared by a conventional method for preparing a water-based suspension, and an emulsifiable concentrate containing S-metolachlor as the active ingredient (tradename: Dual Gold, manufactured by Syngenta), were diluted with water (in an amount corresponding to 200 liter per hectare) containing 0.5 vol % of an agricultural spreader (tradename: Destiny HC, manufactured by Winfield Solutions, LLC.) and sprayed by a small spray gun (model: W-101-132G, manufactured by ANEST IWATA Corporation). On the 16th day after spraying, the state of growth of the Italian ryegrass was visually observed, and the growth inhibition rate (%) was obtained in accordance with the evaluation standards described in the above (1) herbicidal effect test, and the results are shown in Table 2. Further, the expected value of the growth inhibition rate (%) was calculated in accordance with the Colby's formula described in the above (1) herbicidal effect test, and the results are also shown in Table 2.

[2] = system: Italian ryegrass (Lolium multiflorum); assay: (1) Herbicidal effect test, pot, spray at 2.3 to 3.0 leaf stage; conditions: 6th day after spraying
Procedure: as §2, with “2.3” for “2.5”, “6th” for “16th”, “based on” for “in accordance with”, “following” for “evaluation”, “standards” for “standards described in the above (1) herbicidal effect test,”, “1.” for “2. Further, the expected value of the growth inhibition rate (%) was calculated in accordance with the Colby's formula described in the above (1) herbicidal effect test, and the results are also shown in Table 2.”
Further, the expected value of the growth inhibition rate (%) was calculated in accordance with the following Colby's formula (S. R. Colby, “Weeds”, vol. 15 ([…]), p. 20-22) and the results are also shown in Table 1.
as §1
That is, when the growth inhibition rate of the composition of the present invention is higher than E (expected value of growth inhibition rate) calculated by the above formula, the combination can be regarded as having a synergistic effect.

[3] = system: Italian ryegrass (Lolium multiflorum); assay: (3) Herbicidal effect test, pot, spray at 2.8 to 3.2 leaf stage; conditions: 7th day after spraying
Text: as §1
as §2, with “2.8” for “2.5”, “3.2” for “3.0”, “On the 16th day after spraying, the state of growth of the Italian ryegrass was visually observed, and the growth inhibition rate (%) was obtained in accordance with the evaluation standards described in the above (1) herbicidal effect test, and the results are shown in Table 2.” left out, “3.” for “2.”

[4] = system: wheat (cultivar: Norin 61); assay: (22) Plant growth promotion effect test (wheat), Italian ryegrass sown; conditions: 21st day after the sowing, above-ground part
Procedure: Upland soil was put in a 1/1,000,000 hectare pot, and seeds of Italian ryegrass (Lolium multiflorum) were sown. When the Italian ryegrass reached 2.5 to 2.8 leaf stage, a water-based suspension containing tiafenacil as the active ingredient, prepared by a conventional method for preparing a water-based suspension, and a wettable powder containing tri-allate as the active ingredient, prepared by a conventional method for preparing a wettable powder, were diluted with water (in an amount corresponding to 200 liter per hectare) containing 0.5 vol % of an agricultural spreader (tradename: Destiny HC, manufactured by Winfield Solutions, LLC.) and sprayed by a small spray gun (model: W-101-132G, manufactured by ANEST IWATA Corporation). Seeds of wheat (cultivar: Norin 61, manufactured by Asahi Noen Seed Co., Ltd.) were sown in the pot after spraying. On the 21st day after the sowing, the above-ground part of the wheat was reaped, and its weight was measured to obtain the raw weight.

[5] = system: forage corn (cultivar: SNOW DENT OTOHA); assay: (20) Plant growth promotion effect test (corn), Italian ryegrass sown; conditions: 33rd day after the sowing, above-ground part
Procedure: Upland soil was put in a 1/1,000,000 hectare pot, and seeds of Italian ryegrass (Lolium multiflorum) were sown. When the Italian ryegrass reached 2.7 to 3.0 leaf stage, a water-based suspension containing tiafenacil as the active ingredient, prepared by a conventional method for preparing a water-based suspension, and an emulsifiable concentrate containing dimethenamid-P as the active ingredient (tradename: Fieldstar P emulsifiable concentrate, manufactured by BASF) were diluted with water (in an amount corresponding to 200 liter per hectare) containing 0.5 vol % of an agricultural spreader (tradename: Destiny HC, manufactured by Winfield Solutions, LLC.) and sprayed by a small spray gun (model: W-101-132G, manufactured by ANEST IWATA Corporation). Seeds of forage corn (cultivar: SNOW DENT OTOHA, manufactured by SNOW BRAND SEED Co., Ltd.) were sown in the pot after spraying. On the 33rd day after the sowing, the above-ground part of the forage corn was reaped, and its weight was measured to obtain the raw weight.

CCc1cccc(C)c1N(C(=O)CCl)[C@@H](C)COC [S-metolachlor]
Growth inhibition rate (%) Measured value ([1]; Dose 62.5 g/ha): 0%
Growth inhibition rate (%) Measured value ([1]; Dose 125 g/ha): 0%
Growth inhibition rate (%) Measured value ([1]; Dose 750 g/ha): 7%
Growth inhibition rate (%) Measured value ([1]; Dose 1500 g/ha): 55%
Growth inhibition rate (%) Measured value ([1]; Dose 3000 g/ha): 73%
Growth inhibition rate (%) Measured value ([2]; Dose 125 g/ha): 0%
Growth inhibition rate (%) Measured value ([2]; Dose 250 g/ha): 1%
Growth inhibition rate (%) Measured value ([2]; Dose 375 g/ha): 3%
Growth inhibition rate (%) Measured value ([2]; Dose 750 g/ha): 4%
Growth inhibition rate (%) Measured value ([2]; Dose 1500 g/ha): 5%
Growth inhibition rate (%) Measured value ([2]; Dose 3000 g/ha): 5%
Growth inhibition rate (%) Measured value ([3]; Dose 15.6 g/ha): 0%

COC(=O)CCNC(=O)C(C)Sc1cc(-n2c(=O)cc(C(F)(F)F)n(C)c2=O)c(F)cc1Cl (stereo not shown) [tiafenacil]
Raw weight (g) of wheat ([4]; Dose 3 g/ha): 2.2 g
Growth inhibition rate (%) Measured value ([1]; Dose 12.5 g/ha): 30%
Growth inhibition rate (%) Measured value ([2]; Dose 12.5 g/ha): 75%
Growth inhibition rate (%) Measured value ([2]; Dose 25 g/ha): 83%
Raw weight (g) of forage corn ([5]; Dose 6.25 g/ha): 12.1 g
Growth inhibition rate (%) Measured value ([3]; Dose 12.5 g/ha): 53%

COC[C@H](C)N(C(=O)CCl)c1c(C)csc1C [dimethenamid-P]
Raw weight (g) of forage corn ([5]; Dose 60 g/ha): 9.8 g
Raw weight (g) of forage corn ([5]; Dose 375 g/ha): 12.5 g
Raw weight (g) of forage corn ([5]; Dose 750 g/ha): 8.0 g

CC(C)N(C(=O)SCC(Cl)=C(Cl)Cl)C(C)C [tri-allate]
Raw weight (g) of wheat ([4]; Dose 200 g/ha): 2.3 g
